In PubChem BioAssay AID743417 (Broad Institute, 2014) one finds AC50 data, which are given here for 91 molecules.

The test system of the test is Clone20 osteoblast Shn3 3'UTR firefly luciferase, 24 h. The test is described as follows: Shn3 3'UTR reporter inhibitors, dose response, cell-based, Clone20 osteoblasts, luminescence, dry powder, set 2 (AID 743417).

Inconclusive results are not listed. Active and inactive are the calls of the source.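 Rule for the calls: active = compounds lowering the luciferase signal with a fitted half-maximal dose at most twice their top valid dose (cut at about 30 µM in these data); inconclusive = flat fits with moderate signal loss, or poor fits; inactive = the rest.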

For `CC(CCCC(C)(C)O)NC(=O)c1cc(COc2ccc3ncccc3c2)on1` (stereo unspecified), the AC50 is 1.75 µM. In the case of `CC(=O)c1cn(Cc2ccccc2C#N)c2ccccc12`, the AC50 is 0.527 µM.

Consider `Cc1ccccc1CS(=O)(=O)c1ncc(Cl)c(C(=O)Nc2ccc(F)cc2)n1`, for which the AC50 was 3 µM.

For `CCOc1ccc(OCc2cccc(C(=O)O)c2)cc1`, the AC50 is 0.649 µM.

For the molecule `CC(C)OC(=O)c1ccc(NCc2cc(O)ccc2O)cc1Cl`, the AC50 is 2.15 µM. Regarding `Cc1cc(C)c(O)c(-c2cc(C(=O)Nc3ccc(S(=O)(=O)N4CCOCC4)cc3)[nH]n2)c1`, the AC50 was 5.48 µM.

Regarding `Cc1onc(-c2ccccc2Cl)c1C(=O)N(C)C1CCCCC1`, the AC50 is 2.74 µM.

As to `O=C(c1ccoc1)N1CCN(c2cc(-c3cccc(F)c3)nc3cc(-c4cccc(Cl)c4)nn23)CC1`, the AC50 was 9.78 µM.

As for `C=C1C(=O)[C@]23C[C@H]1CCC2[C@]1(C)CCC[C@@](C)(C(=O)O)C1C[C@@H]3O` (stereo partly specified), the AC50 was 1.2 µM. With `CCCOc1ccccc1C1CC(=O)Nc2cc3c(cc21)OCO3` (stereo unspecified), the AC50 was 5.72 µM. `COc1ccc(-c2nc(-c3ccccn3)no2)cc1`: the AC50 was 1.92 µM. Consider `Cc1ccc(-c2nc3cccnc3o2)cc1NC(=O)COc1ccc(C(C)(C)C)cc1`, for which the AC50 was 10.8 µM. For `Cc1nn(C)c(C(=O)NCc2ccc(Cl)cc2)c1Cl`, the concentration at half-maximal activity (AC50) was 1.74 µM.

Consider `CCOC(=O)N1CCN(c2ccc(S(=O)(=O)N(Cc3ccccc3)Cc3ccccc3)cn2)CC1`, for which the AC50 was 2.59 µM. As to `Cn1c2c(c(=O)n(C)c1=O)C(C(F)(F)F)(C(F)(F)F)N=C(c1ccc(Cl)cc1)N2`, the AC50 was 1.47 µM. Regarding `COCCNc1nc(NCc2ccc(C(C)C)cc2)c2sccc2n1`, the AC50 is 3.95 µM. Take `O=S(=O)(c1cccs1)N1CCN(CCOc2ccc(Cl)cc2)CC1`: the AC50 is 13.8 µM. As for `CCOc1ccc(CCN2C(=S)N([C@@H](CC(C)C)CN3CCCC3CN3C(=S)NC[C@@H]3Cc3ccc(O)cc3)C[C@@H]2Cc2ccc(O)cc2)cc1` (stereo partly specified), the AC50 is 11.5 µM. As to `COc1ccc(CNC(=O)c2nc(S(=O)(=O)Cc3ccccc3)ncc2Cl)cc1`, the AC50 is 0.956 µM. On to `Cc1cccc(Nc2nc(NCc3ccco3)c3ccccc3n2)c1`, for which the AC50 was 2.05 µM.

For the molecule `COc1ccc(CC(=O)Nc2ccncc2Cl)cc1`, the AC50 is 2.12 µM. As for `CCCCN1CC(COCc2ccccc2)Oc2cccc(Oc3ccc(C(C)C)cc3)c2S1(=O)=O` (stereo unspecified), the AC50 is 5.03 µM. With `Cc1cc(C(=O)NNS(=O)(=O)c2cc(C(=O)O)ccc2Cl)c(C)n1-c1ccccc1`, the AC50 is 25.7 µM. Regarding `CCOC(=O)c1c(NC(=O)C2c3ccccc3Oc3ccccc32)sc(C(C)=O)c1C`, the AC50 is 4.67 µM. As for `COc1ccccc1NC(=O)Cn1cc(C(=O)C2CC2)c2ccccc21`, the AC50 is 4.76 µM. In the case of `CC(C)c1ccccc1-n1c(SCC(=O)N2CCc3ccccc3C2)nc2ccccc2c1=O` it was 2.99 µM. Take `Cn1c(/C=C/c2ccc([N+](=O)[O-])o2)nc2ccccc2c1=O`: the AC50 is 2.37 µM.

For the molecule `Cc1ccc(S(=O)(=O)N2CCN(c3ncnc4sccc34)CC2)cc1C`, the AC50 is 3.53 µM. As to `CC(C)NS(=O)(=O)c1ccc(CCC(=O)Nc2cc(Cl)ccc2Oc2ccccc2)cc1`, the AC50 was 7.65 µM.

Regarding `CC(=O)N1c2ccc(S(=O)(=O)N3CCC(C(=O)N4CCN(c5cccc(C(F)(F)F)c5)CC4)CC3)cc2CC1C` (stereo unspecified), the AC50 is 1.28 µM. Take `COc1ccccc1N/C(N)=N/c1nc(CSc2ccc(C)cc2)cc(=O)[nH]1`: the half-maximal activity concentration (AC50) was 2.95 µM. With `O=C1CC(Sc2nnnn2-c2ccccc2)C(=O)N1c1cccc(Cl)c1` (stereo unspecified) the figure was 8.53 µM; with `CCCN1C(=O)S/C(=C\c2ccc(N3CCOCC3)o2)C1=O`, 6.37 µM. With `COc1cccc(C(NC(C)=O)c2ccc3cccnc3c2O)c1` (stereo unspecified) the figure was 1.39 µM; with `COc1ccccc1CNc1nc(NCc2ccc(C(C)C)cc2)c2sccc2n1`, 6.81 µM; with `CCOc1ccc(OCC(=O)N(CCC2=CCCCC2)c2c(N)n(Cc3ccccc3)c(=O)[nH]c2=O)cc1`, 8.66 µM. Regarding `CCN(CC)C(=S)Sc1c(-c2ccccc2)c2cc(Cl)ccc2[nH]c1=O`, the AC50 was 27 µM. For the molecule `CCCCCCCCNC(C)C(O)c1ccc(SC(C)C)cc1` (stereo unspecified), the AC50 is 3.94 µM. In the case of `Cc1cc(C(=O)COC(=O)c2ccccc2Br)c(C)n1CC1CCCO1` (stereo unspecified), the AC50 is > 70 µM (inactive). As to `COC(=O)[C@]1(C)CCC[C@@]2(C)C3CC[C@@]4(C)C[C@]3(CCC21)CC(=O)N4Cc1ccc(OC)cc1` (stereo partly specified), the AC50 is 8.16 µM. In the case of `O=[N+]([O-])c1ccc(Sc2cccc3cccnc23)c([N+](=O)[O-])c1` it was 1.71 µM. In the case of `NC1=NC[C@@H](CC2CCCCC2)N1CCc1cc(C(F)(F)F)cc(C(F)(F)F)c1` it was 9.92 µM; in that of `COc1ccc(CNC(=O)C(c2ccc(C)cc2)N(Cc2cccs2)C(=O)c2ccc3c(c2)OCCO3)cc1` (stereo unspecified), 8.1 µM; in that of `Cc1ccc(Nc2c(-c3ccccn3)nc3ccc(C)cn23)cc1`, 1.74 µM. As to `CC(=O)OCCCNc1cc(Sc2ccc(C)cc2)c2nonc2c1[N+](=O)[O-]`, the AC50 is 1.1 µM. For `CCC(=O)N1CCN(c2ccc(NC(=O)c3ccc([N+](=O)[O-])o3)cc2Cl)CC1`, the AC50 was 0.85 µM. In the case of `Cn1cc([N+](=O)[O-])c(C(=O)Nc2cc(Oc3ccccc3)cc([N+](=O)[O-])c2)n1` it was 5.41 µM; in that of `CCCCCCCN(c1ccccc1)[C@@H]1C[C@H]2CCCC(=O)N3CC[C@@H](C1)[C@@H]23`, 11.5 µM; in that of `COc1ccc(NC(=O)/C(Cl)=C(/Cl)S(=O)Cc2ccc(Cl)cc2)cn1` (stereo unspecified), 1.34 µM. In the case of `CC(=O)c1cn(CCOc2cc(C)ccc2C)c2ccccc12`, the AC50 is 1.18 µM. `Cc1cccc(C(=O)Nc2ccc(C(=O)/C=C/c3ccncc3)cc2)c1`: the AC50 was 3.41 µM.

On to `O=c1c(Br)c(Br)cnn1-c1ccccc1`, for which the AC50 was 1.82 µM.

Regarding `CCOC(=O)Cn1c(=O)c(-c2cc(Br)ccc2N)nc2ccccc21`, the AC50 was 0.758 µM. Turning to `O=S(=O)(c1ccc(Cl)cc1)N1CCN(Cc2ccc(O)c3ncccc23)CC1`, the AC50 was 3.01 µM. In the case of `Cc1ccc(Nc2c(-c3ccccn3)nc3cc(C)ccn23)cc1`, the AC50 is 1.36 µM. As to `COc1ccc(Nc2cc(C)nc(NCc3ccccc3)n2)cc1`, the AC50 is 3.9 µM. In the case of `CN(c1ccccc1)S(=O)(=O)c1ccc(NC(=O)c2nc(S(C)(=O)=O)ncc2Cl)cc1`, the AC50 is 0.502 µM. Regarding `CCN(CC)S(=O)(=O)c1cc(NC(=O)CNc2cccc(S(=O)(=O)N3CCCC3)c2)ccc1C`, the AC50 was 0.648 µM.

Take `COc1ccc(CC(N)c2csc(NC(=O)NC(c3ccccc3)c3ccccc3)n2)cc1` (stereo unspecified): the AC50 is 6.4 µM. For the molecule `Cc1c(C(=O)Nc2cccc(C(F)(F)F)c2)oc2ccc(S(=O)(=O)N3CCOCC3)cc12`, the AC50 was 3.8 µM. As to `Cc1ccccc1OCC(O)CNC1CCC(NCC(O)COc2ccccc2C)CC1` (stereo unspecified), the AC50 is 4.5 µM. As for `CCOC(=O)c1cccc(NC2c3ccccc3C(=O)N2Cc2ccco2)c1` (stereo unspecified), the AC50 is 4.26 µM. As for `CCOc1cc(CNCCc2ccc(S(N)(=O)=O)cc2)ccc1OCc1ccccc1`, the AC50 is 2.44 µM.

As to `Cc1ccc2nc(NNC(=O)c3ccc(S(=O)(=O)N4CCc5ccccc5C4)cc3)sc2c1`, the AC50 was 1.62 µM.

As to `Nc1nonc1C(=O)NCCNCc1cc(Br)ccc1OCc1ccccc1F`, the AC50 is 2.5 µM. In the case of `CC(C)c1ccc(/C=C(\c2nc3ccccc3[nH]2)S(=O)(=O)c2ccccc2)cc1`, the AC50 was 4.01 µM.

With `Cc1cc(C(=O)NC2CCCc3c2cnn3-c2ccc(C)c(C)c2)n(C)n1` (stereo unspecified), the AC50 was less than 0.26 µM. Regarding `CCOC(=O)C1CCN(C(=O)c2sc3nc(C)nc(N4CCC(C)CC4)c3c2C)CC1`, the AC50 is 5.26 µM. In the case of `CN(Cc1cccc(Cl)c1Cl)C(=O)c1cccc(S(=O)(=O)N2CCN(Cc3ccccc3)CC2)c1`, the AC50 is 3.38 µM. With `CN(C)c1nc(-c2ccccn2)nnc1-c1ccccc1`, the AC50 is 3.3 µM. For `COc1ccccc1/C=C/CN1CCC(n2nccc2NC(=O)CCc2ccccc2)CC1`, the AC50 is 1.91 µM. `Oc1c(CN2CCCCC2)cc(COCc2ccccc2)c2cccnc12`: the AC50 was 0.537 µM.

`Cc1cccc(C(=O)Nc2ccc(C(=O)/C=C/c3cccnc3)cc2)c1`: the AC50 is 6.23 µM. With `COc1ccc(-c2coc3c(C(=O)NCc4ccc(OC)c(OC)c4)cccc23)c(C)c1` the figure was 0.722 µM.

Regarding `CSc1nnc(NC(=O)c2nc(S(=O)(=O)Cc3cccc(C)c3)ncc2Cl)s1`, the AC50 was 4.03 µM. With `Cc1c(Cl)sn(-c2ccc(Cl)cc2)c1=O`, the AC50 was 0.728 µM. Regarding `S=C(NCc1ccc(Cl)cc1)Nc1ccncc1`, the AC50 was 1.5 µM. Take `Cc1c(CCOC(=O)CC23CC4CC(CC(C4)C2)C3)sc[n+]1CC(=O)c1ccc(Br)cc1`: the AC50 was 12.9 µM. With `Cc1cc(O)c(C(C)C)cc1C1(c2cc(C(C)C)c(O)cc2C)OC(=O)c2ccccc21` the figure was 9.45 µM; with `C=C1CC(COc2ccc3c(C)c(Cl)c(=O)oc3c2)(c2ccccc2)OC1=O` (stereo unspecified), 4.82 µM; with `COc1ccc(CNc2ncnc3sccc23)cc1`, 1.66 µM. With `O=C(c1cnc(N2CCN(c3ccccn3)CC2)c2ccccc12)N1CCN(c2cccc(Cl)c2)CC1` the figure was 1.99 µM; with `N#CC(c1ccc(Cl)cc1)c1ccc2c(C(F)(F)F)cc(C(F)(F)F)nc2n1` (stereo unspecified), 0.487 µM. In the case of `CCCCC(=O)NC(c1ccc(N(CC)CC)cc1)c1ccc2cccnc2c1O` (stereo unspecified), the AC50 was 1.12 µM. In the case of `O=C(NC1CCCCCCC1)c1cc(COc2ccc3ncccc3c2)on1` it was 1.06 µM; in that of `CCCCNc1c(-c2ccc(OC)c(SC3CCCCC3)c2)nc2ccc(C)cn12`, 3.68 µM; in that of `CC(C)=CCC/C(C)=C/CNC(=O)C[C@H]1C[C@H](C(=O)N(C(C)C)C(C)C)[C@@]2(C)c3[nH]c4cc(CCC(=O)N(C)C)ccc4c3CCN2C1=O`, 2.05 µM. For the molecule `Cc1ccc(-n2ncc3c(N4CCN(c5ccc(F)cc5)CC4)ncnc32)c(C)c1`, the AC50 is 3.24 µM. Take `CCC(C)C1NC(=O)C(NC(=O)C(CC(C)C)N(C)C(=O)C2CCCN2C(=O)C(C)O)C(C)OC(=O)C(Cc2ccc(OC)cc2)N(C)C(=O)C2CCCN2C(=O)C(CC(C)C)NC(=O)[C@H](C)C(=O)[C@H](C(C)C)OC(=O)CC1O` (stereo partly specified): the AC50 was less than 0.26 µM. In the case of `CCC(O)C1CCN(C(=O)c2cc(COc3ccc4ncccc4c3)on2)CC1` (stereo unspecified) it was 0.505 µM; in that of `NS(=O)(=O)c1ccc(CCNc2nn3c(-c4cccc(OC(F)(F)F)c4)cnc3s2)cc1`, 3.93 µM.
